# Laboratory results taken from PubChem BioAssay AID463206 (Broad Institute, 2010).
# Active and inactive are the calls of the source.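 How the source made its calls: active means caspase luminescence falls with dose and the half-maximal concentration AC50 from the fitted curve is at or below a set limit; inconclusive means flat fit at 30 to 70% signal loss, or invalid fit; inactive means AC50 above the limit, or signal rises instead.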
# Test system: INS-1E cytokine-induced caspase-3/7, Caspase-Glo luminescence, 48 h
# Test: inhibitors of cytokine-induced caspase-3/7 activity, dose response, orthogonal assay for beta-cell apoptosis protection project, INS-1E rat cells, luminescence (AID 463206)
row,Compound,AC50
1,COc1ncnc(OC)c1S(=O)(=O)Nc1ccc(C(F)(F)F)cc1,> 26 µM (inactive)
2,CCOc1ccc(Nc2cc(C)nc(-n3nc(C)cc3C)n2)cc1,> 26 µM (inactive)
3,COc1cnc(-c2ccccn2)nc1Oc1ccc(Cl)c2ccccc12,> 26 µM (inactive)
4,CCOC(=O)N1CCN(c2ncnc3c2[nH]c2ccc(F)cc23)CC1,> 26 µM (inactive)
5,O=C(Nc1ncnc2c1C(c1ccccc1)c1c(ccc3ccccc13)O2)c1ccccc1 (centres undefined),> 26 µM (inactive)
6,O=C(CCCCC(=O)Nc1ccc(F)cc1F)Nc1ccc(F)cc1F,> 26 µM (inactive)
7,Clc1ccc(C(Cn2ccnc2)OCc2csc3c(Cl)cccc23)c(Cl)c1 (centres undefined),> 26 µM (inactive)
8,Cc1ccccc1N1CCN(Cc2c[nH]c3ccccc23)CC1,> 26 µM (inactive)
9,O=[N+]([O-])c1ccc(N2CCN(C(=S)NCc3ccc(Cl)cc3)CC2)cc1,> 26 µM (inactive)
10,O=C(Nc1ccc(Cl)cc1)Nc1nnc(-c2ccncc2)s1,> 26 µM (inactive)
11,COc1ccc(C(=O)CSc2n[nH]c(=O)n2Cc2ccco2)cc1,> 26 µM (inactive)
12,Cn1nnnc1Sc1ncnc2scc(-c3cc4ccccc4o3)c12,> 26 µM (inactive)
13,C1=C(CCNc2ncnc3c2[nH]c2ccccc23)CCCC1,> 26 µM (inactive)
14,CCCCCCCCCCOC(=O)Cn1c(COc2ccc(C)cc2)[n+](C)c2ccccc21,> 26 µM (inactive)
15,CCN(CC)CCOc1ccc2c(c1)C(=NO)c1cc(OCCN(CC)CC)ccc1-2,6.61 µM
16,CN1/C(=C\C(=S)NC(=O)c2ccccc2Cl)C(C)(C)c2ccccc21,> 26 µM (inactive)
17,CCCC(=O)NC(c1ccccc1)c1ccc2cccnc2c1O (centres undefined),> 26 µM (inactive)
18,O=[N+]([O-])c1cnc(Sc2ccncn2)s1,> 26 µM (inactive)
19,C#CC(=O)N(c1cccc(OC)c1)C(C(=O)NC1CCCC1)c1cccs1 (centres undefined),> 26 µM (inactive)
20,CSc1ccc(S(=O)(=O)Nc2ccc(N3CCOCC3)c(Cl)c2)cc1,> 26 µM (inactive)

row,Compound,AC50
1,C/C(=N\NC(=O)COc1ccccc1-c1ccccc1)c1ccc(O)cc1O,> 26 µM (inactive)
2,COc1ccc(C2CC(c3cccc(C)c3)n3nc(N)nc3N2)cc1 (centres undefined),> 26 µM (inactive)
3,C=C[C@H](CC(C)C)N(Cc1ccccc1)S(=O)(=O)N(Cc1ccccc1)[C@@H](C=C)CC(C)C,> 26 µM (inactive)
4,CNc1ccc2oc(C[C@H]3O[C@@]4(CC[C@H]3C)O[C@H]([C@H](C)C(=O)c3ccc[nH]3)[C@H](C)C[C@H]4C)nc2c1C(=O)O,> 26 µM (inactive)
5,CC(C)C[C@H]1CN=C(Nc2ccccc2)N1CC1CCC(C(C)(C)C)CC1 (some centres undefined),> 26 µM (inactive)
6,COc1ccccc1NC1=C(N2CCCCC2)C(=O)c2ccccc2C1=O,> 26 µM (inactive)
7,CCN(CC)c1ccc(N=Cc2ccc([N+](=O)[O-])o2)cc1,> 26 µM (inactive)
8,COc1cc2c(cc1OC)-c1c(OC)c(OC)c(OC)c3ccnc(c13)C2=O,7.97 µM
9,CCn1cc(/C=C/c2cc[n+](C)cc2)c2ccccc21,> 26 µM (inactive)
10,CCCCOCCCNc1ncnc2c1[nH]c1ccccc12,> 26 µM (inactive)
11,N#CC(C#N)=C1C=CC=CN1/C(=C\c1ccco1)C(=O)c1ccc(Br)cc1,> 26 µM (inactive)
12,O=C(Nc1ccc(F)cc1)c1cccnc1,> 26 µM (inactive)
13,Cc1ccnc2c1ccc1c(C)ccnc12,> 26 µM (inactive)
14,Cc1cccc(NC2=C/C(=N/S(=O)(=O)c3cccs3)c3ccccc3C2=O)c1,> 26 µM (inactive)
15,C/C(=N\NC(=O)c1c(C)nc2ccccn12)c1ccc(O)cc1O,> 26 µM (inactive)
16,CCCCCCc1cc2cc(C(=O)Nc3ccccc3)c(=O)oc2cc1O,> 26 µM (inactive)
17,Nc1nc(-c2ccccn2)nc(N)c1Cc1c(F)cccc1Cl,> 26 µM (inactive)
18,CCN(CC)S(=O)(=O)c1cccc(NC(=O)c2cc(-c3cccs3)nn2-c2ccccc2)c1,> 26 µM (inactive)
19,COc1ccc(C(=O)C/C(=C\C(=O)c2ccc(C)cc2)c2ccccc2)cc1,> 26 µM (inactive)
